Data on 12 molecules can be found in patent US8263606B2 (Xenon Pharmaceuticals Inc., priority 2008, dated 2012).

Bounds are passed on as bounds.

By inhibition is commonly meant the relative decrease from the control value, in per cent.

One data set deals with CYP3A4 (Homo sapiens, UniProt P08684). Briefly: Cytochrome P450 (CYP450) Inhibition Assay, CYP3A4 (Vivid fluorescence, BOMCC substrate). To be noted: at 10 μM.
Chain of CYP3A4 (P08684 whole entry): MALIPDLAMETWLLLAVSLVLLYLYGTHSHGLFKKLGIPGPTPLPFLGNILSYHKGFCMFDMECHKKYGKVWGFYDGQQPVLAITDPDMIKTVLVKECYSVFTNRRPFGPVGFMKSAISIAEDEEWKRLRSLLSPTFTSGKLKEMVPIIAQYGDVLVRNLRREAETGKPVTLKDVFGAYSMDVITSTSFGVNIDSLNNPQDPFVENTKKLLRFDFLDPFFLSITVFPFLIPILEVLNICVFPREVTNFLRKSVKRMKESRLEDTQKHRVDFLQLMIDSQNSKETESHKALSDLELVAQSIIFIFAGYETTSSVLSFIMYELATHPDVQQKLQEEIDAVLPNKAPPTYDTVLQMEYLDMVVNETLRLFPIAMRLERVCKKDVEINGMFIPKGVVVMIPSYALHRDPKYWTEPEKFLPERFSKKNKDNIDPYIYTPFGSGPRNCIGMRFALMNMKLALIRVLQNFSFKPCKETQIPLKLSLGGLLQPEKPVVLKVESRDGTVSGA
As for `CC(=O)c1cccc2c1C1(COc3cc4c(cc31)OCCO4)C(=O)N2C` (stereo not drawn) [Example 24, 4′-acetyl-t-methyl-2,3-dihydrospiro[furo[2,3-g][1,4]benzodioxine-8,3′-indol]-2′(1′H)-one], the “% Inhibition of CYP3A4” value is on record as “A (percent inhibition of less than 50% at 10 μM)”.

Still in this data set, the particulars now being: human, P450 Baculosomes (recombinant CYP3A4), probe BOMCC (Vivid substrate).
As for `CC(C)NC(=O)N1CCC(CN2C(=O)C3(COc4cc5c(cc43)CCO5)c3ccccc32)C1` (stereo not drawn) [11.62, N-(1-methylethyl)-3-[(2′-oxo-5,6-dihydrospiro[benzo[1,2-b:5,4-b′]difuran-3,3′-indol]-1′(2′H)-yl)methyl]pyrrolidine-1-carboxamide], the inhibition at 10 µM was greater than 50%.
Regarding `CCCCCCN1C(=O)C2(COc3cc4c(cc32)OCCO4)c2ccccc21` (stereo not drawn) [Example 7.5, 1′-hexyl-2,3-dihydrospiro[furo[2,3-g][1,4]benzodioxine-8,3′-indol]-2′(1′H)-one], the inhibition at 10 µM is greater than 50%.
Same read-out and setting: the figure for `O=C1N(CCC2CC2)c2ccccc2C12COc1cc3c(cc12)OCCO3` (stereo not drawn) [Example 7.6] is less than 50%; for `CCOCCN1C(=O)C2(COc3cc4c(cc32)OCCO4)c2ccccc21` (stereo not drawn) [Example 7.7] it is less than 50%; for `COCCCN1C(=O)C2(COc3cc4c(cc32)OCCO4)c2ccccc21` (stereo not drawn) [Example 7.9] it is less than 50%.
Turning to `O=C1N(C[C@H]2CCCO2)c2ccccc2[C@]12COc1cc3c(cc12)CCO3` [Example 11.62, (3S)-1′-[(2R)-tetrahydrofuran-2-ylmethyl]-5,6-dihydrospiro[benzo[1,2-b:5,4-b′]difuran-3,3′-indol]-2′(1′H)-one], the inhibition at 10 µM is less than 50%.
For `CN(C)C(=O)c1cccc2c1C1(COc3cc4c(cc31)OCCO4)C(=O)N2C` (stereo not drawn) [Example 16.78, N,N,1′-trimethyl-2′-oxo-1′,2,2′,3-tetrahydrospiro[furo[2,3-g][1,4]benzodioxine-8,3′-indole]-4′-carboxamide], the inhibition at 10 µM was less than 50%.
Still for that read-out and setting: the figure for `CN1C(=O)C2(COc3cc4c(cc32)OCCO4)c2c(Oc3cccc(N4CCOCC4)c3)cccc21` (stereo not drawn) [Example 16.81, 1′-methyl-4′-(3-morpholin-4-ylphenoxy)-2,3-dihydrospiro[furo[2,3-g][1,4]benzodioxine-8,3′-indol]-2′(1′H)-one] is greater than 50%; for `COc1ccc(Oc2cccc3c2C2(COc4cc5c(cc42)OCCO5)C(=O)N3C)cn1` (stereo not drawn) [Example 16.82, 4′-[(6-methoxypyridin-3-yl)oxy]-1′-methyl-2,3-dihydrospiro[furo[2,3-g][1,4]benzodioxine-8,3′-indol]-2′(1′H)-one] it is less than 50%; for `CN1C(=O)C2(COc3cc4c(cc32)OCCO4)c2c(Oc3ccc4c(c3)OCO4)cccc21` (stereo not drawn) [Example 16.83, 4′-(1,3-benzodioxol-5-yloxy)-1′-methyl-2,3-dihydrospiro[furo[2,3-g][1,4]benzodioxine-8,3′-indol]-2′(1′H)-one] it is greater than 50%.
Regarding `CN1C(=O)C2(COc3cc4c(cc32)OCCO4)c2c(OCc3ccc(F)cc3)cccc21` (stereo not drawn) [Example 16.86, 1′-methyl-4-(4-fluorobenzyloxy)-2,3-dihydrospiro[furo[2,3-g][1,4]benzodioxine-8,3′-indol]-2′(1′H)-one], the inhibition at 10 µM is greater than 50%.
